Experimental data as given in EPA's ToxRefDB 2.

What was measured:
rabbit = conditions: Sub-acute repeat dose toxicity, Oral, Gavage/Intubation, dose end: 13 day
rat [1] = conditions: Sub-acute repeat dose toxicity, wistar, Oral, Gavage/Intubation, dose end: 14 day, group: systemic
rat [2] = conditions: Sub-acute repeat dose toxicity, wistar, Oral, Gavage/Intubation, dose end: 14 day, group: systemic; remark: listed apart in the source
primate [3] = conditions: Sub-acute repeat dose toxicity, Oral, Gavage/Intubation, dose end: 14 day, group: systemic
rat [4] = conditions: Sub-acute repeat dose toxicity; wistar; Oral; Gavage/Intubation; dose end: 14 day; group: systemic; systemic / in life observation / clinical signs / abnormal feces + systemic / in life observation / clinical signs / erythema + systemic / …
rat [5] = conditions: Sub-acute repeat dose toxicity, wistar, Oral, Gavage/Intubation, dose end: 28 day, group: systemic
primate [6] = conditions: Sub-acute repeat dose toxicity, Oral, Gavage/Intubation, dose end: 28 day, group: systemic
dog [7] = conditions: Sub-acute repeat dose toxicity, beagle, Oral, Gavage/Intubation, dose end: 28 day, group: systemic
primate [8] = conditions: Sub-acute repeat dose toxicity; Oral; Gavage/Intubation; dose end: 5 day; group: systemic; systemic / clinical chemistry / [other] / [other] + systemic / clinical chemistry / plasma renin activity / plasma renin activity + systemic…
rat [9] = conditions: Multigenerational reproductive toxicity study, wistar, Oral, Feed, dose end: 2 generation
rat [10] = conditions: Subchronic oral toxicity in rodents, sprague dawley, Feed, dose end: 13 week, group: systemic
dog [11] = conditions: Chronic toxicity, beagle, Oral, [Not Specified], dose end: 52 week, group: systemic
mouse [12] = conditions: Subchronic oral toxicity in rodents, cd1, Feed, dose end: 90 day, group: systemic, systemic / in life observation / body weight / body weight + systemic / in life observation / body weight / body weight gain
rat [13] = conditions: Combined chronic toxicity/carcinogenicity, Oral, Feed, dose end: 104 week, group: systemic
dog [14] = conditions: Subchronic oral toxicity in nonrodent, beagle, Feed, dose end: 13 week, group: systemic
mouse [15] = conditions: Carcinogenicity; cd1; Oral; Feed; dose end: 78 week; group: systemic; systemic / organ weight / spleen / nos
[16] = group: maternal, reproductive / reproductive performance / aborted / aborted + reproductive / reproductive performance / resorptions / resorptions
[17] = group: systemic, systemic / in life observation / body weight / body weight gain
[18] = group: systemic, systemic / in life observation / body weight / body weight gain + systemic / in life observation / body weight / body weight + systemic / in…
[19] = systemic / in life observation / clinical signs / abnormal feces + systemic / in life observation / clinical signs / body cold to touch + …
[20] = systemic / in life observation / clinical signs / body cold to touch + systemic / in life observation / clinical signs / dehydration + …
[21] = systemic / in life observation / clinical signs / abnormal feces + systemic / in life observation / clinical signs / salivation + systemic…
[22] = systemic / clinical chemistry / [other] / [other] + systemic / clinical chemistry / creatinine / creatinine + systemic / in life observation…
[23] = systemic / in life observation / body weight / body weight gain + systemic / in life observation / clinical signs / abnormal feces + …
[24] = systemic / in life observation / clinical signs / nasal discharge + systemic / in life observation / clinical signs / urine staining - …
[25] = systemic / in life observation / clinical signs / abnormal feces + systemic / in life observation / clinical signs / dialated pupils + …
[26] = systemic / clinical chemistry / alanine aminotransferase (alt/sgpt) / alanine aminotransferase (alt/sgpt) + systemic / clinical chemistry / …
[27] = systemic / in life observation / body weight / body weight + systemic / pathology microscopic / kidney / atrophy + systemic / pathology …
[28] = group: offspring, systemic / in life observation / clinical signs / grip strength
[29] = group: offspring, systemic / in life observation / clinical signs / grip strength + systemic / in life observation / body weight / offspring (pup) weight + …
[30] = group: parental, systemic / in life observation / body weight / body weight gain + systemic / in life observation / food consumption / food consumption + …
[31] = group: reproductive, reproductive / reproductive performance / estrous cycle / length
[32] = systemic / pathology microscopic / adrenal gland / vacuolization + systemic / clinical chemistry / cholesterol / cholesterol + systemic / …
[33] = systemic / organ weight / thymus / nos
[34] = systemic / organ weight / thymus / nos + systemic / hematology / platelet / platelet + systemic / organ weight / testes / nos
[35] = systemic / in life observation / body weight / body weight + systemic / in life observation / body weight / body weight gain
[36] = systemic / in life observation / body weight / body weight + systemic / in life observation / body weight / body weight gain + systemic / …

Question: What does the source list for `Cc1cc(SC2=C(O)C[C@@](CCc3ccc(N)cc3)(C(C)C)OC2=O)c(C(C)(C)C)cc1CO` [CI-1029]?
Answer: LEL (rabbit; [16]): 250 mg/kg/day; LOAEL (rabbit; [16]): > 500 mg/kg/day; NEL (rabbit; [16]): 100 mg/kg/day; NOAEL (rabbit; [16]): ≥ 500 mg/kg/day; LEL (rabbit; [17]): 50 mg/kg/day; NEL (rabbit; [17]): < 50 mg/kg/day; LOAEL (rabbit; [18]): > 500 mg/kg/day; NOAEL (rabbit; [18]): ≥ 500 mg/kg/day; LOAEL (rat [1]; [19]): > 5000 mg/kg/day; NOAEL (rat [1]; [19]): ≥ 5000 mg/kg/day; LEL (rat [1]; [20]): 500 mg/kg/day; NEL (rat [1]; [20]): < 500 mg/kg/day; LOAEL (rat [2]; [21]): > 1000 mg/kg/day; NEL (rat [2]; [21]): 250 mg/kg/day; NOAEL (rat [2]; [21]): ≥ 1000 mg/kg/day; LEL (rat [2]; systemic / in life observation / clinical signs / urine staining - perineum): 500 mg/kg/day; LOAEL (primate [3]; [22]): > 1000 mg/kg/day; NOAEL (primate [3]; [22]): ≥ 1000 mg/kg/day; LEL (primate [3]; [23]): 100 mg/kg/day; NEL (primate [3]; [23]): < 100 mg/kg/day; LEL (rat [4]): 2500 mg/kg/day; LOAEL (rat [4]): > 5000 mg/kg/day; NEL (rat [4]): 1000 mg/kg/day; NOAEL (rat [4]): ≥ 5000 mg/kg/day; LOAEL (rat [5]; [24]): > 1000 mg/kg/day; NEL (rat [5]; [24]): 100 mg/kg/day; NOAEL (rat [5]; [24]): ≥ 1000 mg/kg/day; LEL (rat [5]; systemic / in life observation / clinical signs / urine staining - perineum + systemic / in life observation / body weight / body weight …): 500 mg/kg/day; LEL (primate [6]; systemic / in life observation / body weight / body weight + systemic / in life observation / clinical signs / abnormal feces + systemic / …): 500 mg/kg/day; LOAEL (primate [6]; [25]): > 750 mg/kg/day; NOAEL (primate [6]; [25]): ≥ 750 mg/kg/day; LOAEL (dog [7]; [26]): > 500 mg/kg/day; NOAEL (dog [7]; [26]): ≥ 500 mg/kg/day; LEL (dog [7]; [27]): 100 mg/kg/day; NEL (dog [7]; [27]): < 100 mg/kg/day; LEL (primate [8]): 750 mg/kg/day; LOAEL (primate [8]): > 750 mg/kg/day; NEL (primate [8]): < 750 mg/kg/day; NOAEL (primate [8]): ≥ 750 mg/kg/day

Question: What does the source list for `CNC(=N[N+](=O)[O-])NCC1CCOC1` (centres undefined) [Dinotefuran]?
Answer: NEL (rat [9]; [28]): 269 mg/kg/day; NOAEL (rat [9]; [28]): 269 mg/kg/day; LEL (rat [9]; [29]): 935 mg/kg/day; LOAEL (rat [9]; [29]): 935 mg/kg/day; LEL (rat [9]; [30]): 822 mg/kg/day; LOAEL (rat [9]; [30]): 822 mg/kg/day; NEL (rat [9]; [30]): 241 mg/kg/day; NOAEL (rat [9]; [30]): 241 mg/kg/day; LEL (rat [9]; [31]): 907 mg/kg/day; LOAEL (rat [9]; [31]): 907 mg/kg/day; NEL (rat [9]; [31]): 268 mg/kg/day; NOAEL (rat [9]; [31]): 268 mg/kg/day; LOAEL (rat [10]; systemic / pathology microscopic / adrenal gland / vacuolization): 336 mg/kg/day; NEL (rat [10]; [32]): 34 mg/kg/day; NOAEL (rat [10]; [32]): 34 mg/kg/day; LEL (rat [10]; systemic / pathology microscopic / adrenal gland / vacuolization + systemic / organ weight / liver / relative to body weight): 336 mg/kg/day; LOAEL (dog [11]; [33]): 20 mg/kg/day; NOAEL (dog [11]; [33]): < 20 mg/kg/day; LEL (dog [11]; [34]): 20 mg/kg/day; NEL (dog [11]; [34]): < 20 mg/kg/day; LEL (mouse [12]): 10600 mg/kg/day; LOAEL (mouse [12]): 10600 mg/kg/day; NEL (mouse [12]): 4440 mg/kg/day; NOAEL (mouse [12]): 4440 mg/kg/day; NEL (rat [13]; systemic / organ weight / uterus / relative to brain weight + systemic / organ weight / brain / relative to body weight + systemic / organ …): 1330 mg/kg/day; LOAEL (rat [13]; systemic / pathology microscopic / kidney / ulcer + systemic / pathology microscopic / kidney / dilatation): 991 mg/kg/day; NOAEL (rat [13]; systemic / pathology microscopic / kidney / ulcer + systemic / pathology microscopic / kidney / dilatation + systemic / pathology …): 99.7 mg/kg/day; LOAEL (dog [14]; [35]): 58 mg/kg/day; NOAEL (dog [14]; [35]): < 58 mg/kg/day; LEL (dog [14]; [36]): 58 mg/kg/day; NEL (dog [14]; [36]): < 58 mg/kg/day; LEL (mouse [15]): 3 mg/kg/day; LOAEL (mouse [15]): 3 mg/kg/day; NEL (mouse [15]): < 3 mg/kg/day; NOAEL (mouse [15]): < 3 mg/kg/day
